Test results: PubChem BioAssay (NCI)
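Assay format: 96-well plates, 48-hour exposure. Definition used: TGI = concentration required for complete inhibition of growth.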

Columns and labels:
Experiment in all cases: DTP human tumour cell line panel, 48 h
[1] = tested on: PC-3 prostate
[2] = tested on: HCT-116 colon
[3] = tested on: SW-620 colon
[4] = tested on: M14 melanoma
[5] = tested on: MDA-MB-231 breast
[6] = tested on: NCI/ADR-RES ovarian
[7] = tested on: HCT-15 colon
[8] = tested on: HCC-2998 colon
[9] = tested on: K-562 leukemia
[10] = tested on: UO-31 renal
[11] = tested on: RXF 393 renal
[12] = tested on: A549 NSCLC
[13] = tested on: SF-539 CNS
[14] = tested on: 786-0 renal
[15] = tested on: OVCAR-8 ovarian
[16] = tested on: MDA-MB-435
[17] = tested on: BT-549 breast
[18] = tested on: TK-10 renal
[19] = tested on: UACC-62 melanoma
[20] = tested on: MALME-3M melanoma

| Compound | TGI [1] | TGI [2] | TGI [3] | TGI [4] | TGI [5] | TGI [6] | TGI [7] | TGI [8] | TGI [9] | TGI [10] | TGI [11] | TGI [12] | TGI [13] | TGI [14] | TGI [15] | TGI [16] | TGI [17] | TGI [18] | TGI [19] | TGI [20] |
| --- | --- | --- | --- | --- | --- | --- | --- | --- | --- | --- | --- | --- | --- | --- | --- | --- | --- | --- | --- | --- |
| CN(CCCCN1CCCC1)CCCCN(C)C(=O)Cc1ccc(Cl)c(Cl)c1 | 36.4 µM | 29.3 µM | 38.4 µM | 35.7 µM | 23.5 µM | > 100 µM | 50 µM | 18.5 µM | 10.5 µM | 3.31 µM | 25.9 µM | 31.2 µM | 23.3 µM | 25.7 µM | 64.9 µM | 5.3 µM | 36.7 µM | 32.6 µM | 12.3 µM | 34.4 µM |
| COc1cc(/C=C/C=C2\CCC/C(=C\C=C\c3ccc(O)c(OC)c3)C2=O)ccc1O | 38.2 µM | 49 µM | 51.1 µM | > 100 µM | > 100 µM | 48.8 µM | 43.7 µM | > 100 µM | > 100 µM | 39.5 µM | 41.7 µM | 26.8 µM | 45.9 µM | 63.5 µM | 72.3 µM | > 100 µM | 60.5 µM | 52 µM | 31.6 µM | 44.8 µM |
| O=C(/C=c1\oc(=O)/c(=C/C(=O)c2ccc(Cl)cc2)oc1=O)c1ccc(Cl)cc1 | > 100 µM | > 100 µM |  | > 100 µM | > 100 µM | > 100 µM | > 100 µM | > 100 µM | > 100 µM | > 100 µM | > 100 µM | > 100 µM | > 100 µM | > 100 µM | > 100 µM | > 100 µM | 91 µM | > 100 µM | > 100 µM | > 100 µM |
| O=c1oc2ccccc2cc1-c1csc(Nc2cc(Cl)cc(Cl)c2)n1 | > 100 µM | > 38.3 µM | 50.9 µM | > 72.2 µM | 63.8 µM | > 83.7 µM | > 100 µM | > 100 µM | > 100 µM | 7.53 µM | 14.6 µM | 16.9 µM | 5.16 µM | 12.9 µM | > 52 µM | > 53.1 µM | > 100 µM | 85.2 µM | > 100 µM | 64.8 µM |
| CN(C)Cc1cc(N=Nc2ccccc2Cl)ccc1O | > 100 µM | > 100 µM | 28 µM | 44.5 µM | 86.4 µM | 74.7 µM | 75.5 µM | 26.8 µM | 38.4 µM | 36.5 µM | 60.8 µM | 25.3 µM | 59.5 µM | 35.4 µM | 25.3 µM | 32.9 µM | 85.4 µM | 65.8 µM | 40.9 µM | 25.9 µM |
| CCOC(=O)/C(=C\c1ccnc2ccccc12)P(=O)(OCC)OCC | 16.8 µM | 3.61 µM | 5.27 µM | 5.02 µM | 8.84 µM | 5.9 µM | 3.3 µM | 26.7 µM | 9.96 µM |  | 4.41 µM | 14.7 µM | 3.32 µM | 6.14 µM | 7.96 µM | 9.95 µM | 4.22 µM | 14 µM | 10.4 µM | 3.71 µM |
| CC(=O)Nc1ccc(-c2nc3ccccc3s2)cc1Cl | > 100 µM | > 100 µM | > 100 µM | > 100 µM | > 100 µM | > 100 µM | > 100 µM | > 100 µM | > 100 µM | > 100 µM | 90.3 µM | > 100 µM | > 100 µM | > 100 µM | > 100 µM | > 100 µM | > 100 µM | 0.445 µM | > 100 µM | > 100 µM |
| c1cc2[nH]snc2c2cncc12 | > 100 µM | > 100 µM | > 100 µM |  | > 100 µM | > 100 µM | > 100 µM | > 100 µM | > 100 µM | > 100 µM | > 100 µM | > 100 µM | > 100 µM | > 100 µM | > 100 µM | > 100 µM | > 100 µM | > 100 µM | > 100 µM | > 100 µM |
| CC(=O)c1cccc(Nc2c3ccccc3nc3occc23)c1 | > 100 µM | 18.4 µM |  | 24.4 µM | 67.7 µM | 6.47 µM | > 100 µM | 25.2 µM | > 100 µM | > 100 µM | 6.73 µM | > 100 µM | 7.63 µM | 27.6 µM | > 100 µM | 2.85 µM | 54.3 µM | 94.1 µM | 27.7 µM | 27.6 µM |
| COC(=O)/C=C\[C@@H]1[C@H](C)N1S(=O)(=O)c1ccc(C)cc1 (some centres not stated) | > 100 µM | > 100 µM | > 100 µM | > 100 µM | > 100 µM | > 100 µM | > 100 µM | > 100 µM | > 100 µM |  | > 100 µM | > 100 µM | > 100 µM | > 100 µM | > 100 µM | > 100 µM | > 100 µM | > 100 µM | > 100 µM | > 100 µM |
| COCOc1cc(OC)c(Br)cc1C/C(=N/O)C(=O)OC | > 100 µM | > 100 µM | > 100 µM | > 100 µM | > 100 µM | > 100 µM | > 100 µM | > 100 µM | > 100 µM | > 100 µM | > 100 µM | > 100 µM | > 100 µM | > 100 µM | > 100 µM | > 100 µM | > 100 µM | > 100 µM | > 100 µM | > 100 µM |
| Cc1ccc(C(=O)OC(C)C)cc1N=NN(C)C | > 100 µM | > 100 µM | > 100 µM | > 100 µM | > 100 µM | > 100 µM | > 100 µM | > 100 µM | > 100 µM | > 100 µM |  | > 100 µM | > 100 µM | > 100 µM | > 100 µM | > 100 µM | > 100 µM | > 100 µM | > 100 µM | > 100 µM |
| Cc1cc(C)c(S(=O)(=O)N(CCCCCCN)OCCCN)c(C)c1 | 28.1 µM | 31.7 µM | 40.4 µM | 44.9 µM | 24.4 µM | > 100 µM | 32.5 µM | 32.6 µM | > 100 µM | 43.2 µM |  | > 100 µM | 34.2 µM | 32.1 µM | 27.9 µM | > 100 µM | 33.3 µM | 29.4 µM | 40 µM | 24 µM |
| FC(F)(F)c1ccc2c(c1)nc(Cc1ccc(Cl)c(Cl)c1)n2CC1CCCN2CCCCC12 (configuration not stated) | > 100 µM | 30.6 µM | > 100 µM | 25.2 µM | 48.7 µM | 84.7 µM | > 100 µM | 22.5 µM | > 100 µM |  | > 100 µM | 44.2 µM | 40 µM | 30.7 µM | > 100 µM | > 100 µM | 85.2 µM | 74.9 µM | 30.2 µM | 28.6 µM |
| COc1ccc2c(c1)CCC(CN1CCN(CCOC(c3ccc(F)cc3)c3ccc(F)cc3)CC1)C2O (configuration not stated) | 24 µM | 23.8 µM | > 100 µM | 25.5 µM | 27.4 µM | 25.4 µM | 22.3 µM | 9.33 µM | 45 µM |  | 26.3 µM | 32.7 µM | 51.6 µM | 25.2 µM | 27.4 µM | 34.6 µM | 27.5 µM | 29.7 µM | 24.2 µM | 28 µM |
| Brc1cccc(Nc2ncnc3sc4c(c23)CCC(Nc2cccc(Br)c2)C4)c1 (configuration not stated) | > 100 µM | > 100 µM | > 100 µM | > 100 µM | > 100 µM | > 100 µM | > 100 µM | > 100 µM | > 100 µM | > 100 µM | > 100 µM | > 100 µM |  | > 100 µM | > 100 µM | > 100 µM | > 100 µM | > 100 µM | > 100 µM | > 100 µM |
| COc1ccc(/C=N/NC(=O)c2ccccc2Nc2ccccc2C(=O)N/N=C/c2ccc(OC)cc2)cc1 | > 100 µM | > 100 µM | > 100 µM | > 100 µM | > 100 µM | > 100 µM | > 100 µM | > 100 µM | > 100 µM | > 100 µM | > 100 µM | > 100 µM |  | > 100 µM | > 100 µM | > 100 µM | > 100 µM | > 100 µM | > 100 µM | > 100 µM |
| CC(=O)/C=C(/C=N/O)c1ccccc1 | > 100 µM | > 100 µM | > 100 µM | > 100 µM | > 100 µM | > 100 µM | > 100 µM | > 100 µM | > 100 µM | > 100 µM |  | > 100 µM | > 100 µM | > 100 µM | > 100 µM | > 100 µM | > 100 µM | > 100 µM | > 100 µM | > 100 µM |
| CCCCC1C(=O)N(c2ccc(S(=O)(=O)Nc3ccccn3)cc2)N(c2ccc(O)c(C(=O)O)c2)C1=O (configuration not stated) | > 100 µM | > 100 µM | > 100 µM | > 100 µM | > 100 µM | > 100 µM | > 100 µM | > 100 µM | > 100 µM | > 100 µM | > 100 µM | > 100 µM | > 100 µM | > 100 µM | > 100 µM | > 100 µM | > 100 µM |  | > 100 µM | > 100 µM |
